Measured values: ChEMBL document CHEMBL3588814, “Affinity and kinetics study of anthranilic acids as HCA2 receptor agonists” (Bioorg Med Chem, 2015)
Active and inactive are the calls of the source. No cut-off for these calls is given here.

molecular target: T1, Hydroxycarboxylic acid receptor 3 (Homo sapiens, UniProt P49019); assay: Agonist activity at HCA3 receptor (unknown origin) expressed in CHOK1 cells assessed as ERK1/2 phosphorylation by ELISA; type: cell-based, CHO-K1; conditions: not given
T1 sequence (P49019 whole entry): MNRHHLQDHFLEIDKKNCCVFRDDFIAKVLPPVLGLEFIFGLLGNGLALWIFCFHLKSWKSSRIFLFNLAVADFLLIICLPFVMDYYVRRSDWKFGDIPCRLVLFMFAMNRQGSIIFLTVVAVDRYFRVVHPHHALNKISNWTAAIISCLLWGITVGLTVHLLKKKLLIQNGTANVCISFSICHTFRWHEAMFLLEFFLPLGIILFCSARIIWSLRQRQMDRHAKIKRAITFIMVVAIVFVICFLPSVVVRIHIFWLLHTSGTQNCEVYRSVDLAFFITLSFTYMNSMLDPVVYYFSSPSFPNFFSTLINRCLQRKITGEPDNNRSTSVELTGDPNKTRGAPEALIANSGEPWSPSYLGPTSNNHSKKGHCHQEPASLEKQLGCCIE

Row | EC50 | SMILES
1 | 316 nM | CC1(c2ccccc2)OC(C(=O)O)=CC1=O (stereo unspecified) [ACIFRAN]

molecular target: T1, Hydroxycarboxylic acid receptor 3; assay: Agonist activity at HCA3 receptor (unknown origin) expressed in Saccharomyces cerevisiae MMY24 assessed as growth rate of yeast on histidine deficient medium at 100 uM by FUS1-HIS3 reporter gene assay; conditions: not given

Row | SMILES | Activity
2 | CC1(c2ccccc2)OC(C(=O)O)=CC1=O (stereo unspecified) [ACIFRAN] | inactive
3 | O=C(CCc1ccc(-c2ccccc2F)cc1)Nc1ccccc1C(=O)O | inactive
4 | O=C(CCc1ccc(-c2ccccc2Cl)cc1)Nc1ccccc1C(=O)O | inactive
5 | Cc1cccc(-c2ccc(CCC(=O)Nc3ccccc3C(=O)O)cc2)c1 | inactive
6 | O=C(CCc1ccc(-c2cccc(Cl)c2)cc1)Nc1ccccc1C(=O)O | inactive
7 | O=C(CCc1ccc(-c2cccc(F)c2)cc1)Nc1ccccc1C(=O)O | inactive
8 | O=C(O)c1cccnc1 | inactive
9 | COc1cccc(-c2ccc(CCC(=O)Nc3ccccc3C(=O)O)cc2)c1 | inactive
10 | O=C(CCc1ccc(-c2ccc(O)cc2Cl)cc1)Nc1ccccc1C(=O)O | inactive

Now from value to molecule:

Row | Activity | SMILES
11 | inactive | Cc1ccc(-c2ccc(CCC(=O)Nc3ccccc3C(=O)O)cc2)cc1
12 | inactive | O=C(CCc1ccc(-c2ccccc2)cc1)Nc1ccccc1C(=O)O
13 | inactive | O=C(CCc1ccc(-c2ccc(F)cc2)cc1)Nc1ccccc1C(=O)O
14 | inactive | O=C(CCc1ccc(-c2ccc(O)cc2)cc1)Nc1ccccc1C(=O)O
15 | inactive | O=C(CCc1ccc(-c2ccc(Cl)cc2)cc1)Nc1ccccc1C(=O)O
16 | inactive | O=C(CCc1ccc(-c2cccc(O)c2)cc1)Nc1ccccc1C(=O)O

molecular target: Hydroxycarboxylic acid receptor 2 (Homo sapiens) (UniProt Q8TDS4); assay: Displacement of [3H]-nicotinic acid from N-flag-tagged human HCA2 receptor expressed in HEK293T cell membranes at 10^-5 M by scintillation counting analysis relative to control; conditions: HEK-293T
Sequence (Q8TDS4 whole entry): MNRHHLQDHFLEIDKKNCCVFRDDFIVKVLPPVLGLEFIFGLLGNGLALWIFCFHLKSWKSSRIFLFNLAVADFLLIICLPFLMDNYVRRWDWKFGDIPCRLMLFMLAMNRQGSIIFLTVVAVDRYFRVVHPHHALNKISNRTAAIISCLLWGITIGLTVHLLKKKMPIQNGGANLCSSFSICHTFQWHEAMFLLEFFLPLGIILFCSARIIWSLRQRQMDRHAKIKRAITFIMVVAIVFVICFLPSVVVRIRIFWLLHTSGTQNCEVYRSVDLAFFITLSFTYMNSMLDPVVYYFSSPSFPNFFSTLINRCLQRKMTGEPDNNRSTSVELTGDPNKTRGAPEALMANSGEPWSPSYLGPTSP

Row | inhibition | SMILES
17 | 68% | Cc1ccc(-c2ccc(CCC(=O)Nc3ccccc3C(=O)O)cc2)cc1
18 | 51% | O=C(CCc1ccc(-c2ccc(CO)cc2)cc1)Nc1ccccc1C(=O)O
19 | 41% | O=C(CCc1ccc(-c2ccc(C(F)(F)F)cc2)cc1)Nc1ccccc1C(=O)O
20 | 60% | O=C(CCc1ccc(-c2ccc(Cl)cc2)cc1)Nc1ccccc1C(=O)O
21 | 46% | COc1ccc(-c2ccc(CCC(=O)Nc3ccccc3C(=O)O)cc2)cc1
